The target of assay [1] is T1, α7-nicotinic acetylcholine receptor (Homo sapiens, UniProt P36544).
T1 construct: gene CHRNA7
The assay is described as follows: two-electrode voltage clamp of ACh currents in Xenopus oocytes expressing the human receptor. It counts as cell-based.

The target in a further assay is T2, α7-nACh receptor (Rattus norvegicus, UniProt Q05941).
T2 construct: gene Chrna7
It is filed as cell-based.

T1 sequence (P36544 23-502): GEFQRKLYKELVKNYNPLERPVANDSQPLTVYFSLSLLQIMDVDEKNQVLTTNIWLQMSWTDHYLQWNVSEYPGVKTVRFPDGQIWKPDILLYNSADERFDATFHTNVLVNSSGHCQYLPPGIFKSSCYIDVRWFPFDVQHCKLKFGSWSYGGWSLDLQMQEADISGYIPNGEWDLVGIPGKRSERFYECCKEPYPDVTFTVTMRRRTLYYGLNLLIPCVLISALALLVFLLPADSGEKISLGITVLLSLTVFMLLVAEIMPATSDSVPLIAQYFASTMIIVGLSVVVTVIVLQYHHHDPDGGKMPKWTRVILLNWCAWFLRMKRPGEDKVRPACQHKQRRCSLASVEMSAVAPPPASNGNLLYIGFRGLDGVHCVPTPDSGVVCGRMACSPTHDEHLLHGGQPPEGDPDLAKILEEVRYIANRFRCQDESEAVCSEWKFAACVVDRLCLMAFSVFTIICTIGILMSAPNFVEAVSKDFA
T2 sequence (Q05941 23-502): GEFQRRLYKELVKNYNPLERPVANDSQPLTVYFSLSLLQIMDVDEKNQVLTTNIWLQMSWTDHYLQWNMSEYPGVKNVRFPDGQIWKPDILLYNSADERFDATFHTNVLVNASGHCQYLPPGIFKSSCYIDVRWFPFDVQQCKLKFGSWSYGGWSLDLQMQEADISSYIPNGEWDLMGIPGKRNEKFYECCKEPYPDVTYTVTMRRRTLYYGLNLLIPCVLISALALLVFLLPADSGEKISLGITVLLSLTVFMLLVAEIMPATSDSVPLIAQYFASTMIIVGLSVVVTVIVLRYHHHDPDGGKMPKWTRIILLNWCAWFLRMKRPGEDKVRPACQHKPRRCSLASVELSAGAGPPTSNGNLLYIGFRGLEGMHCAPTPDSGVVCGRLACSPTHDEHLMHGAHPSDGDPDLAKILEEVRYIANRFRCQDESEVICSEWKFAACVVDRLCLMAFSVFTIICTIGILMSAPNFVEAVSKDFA

A word on the IC50: it is the midpoint of a concentration-inhibition curve. `CC1CCC(C(C)C)C(O)C1` (racemic) [menthol] displayed an IC50 in assay [1] of 32.6 ± 2.3 µM.
Regarding `O=C(N[C@H]1CN2CCC1CC2)c1ccc(Cl)cc1` [PNU282987], the “GCaMP5G Ca2+ imaging in PC12 cells (endogenous receptor), 10 μM, blocked by α-bu” value on α7-nACh receptor is given as “activation of the α7-nACh receptor with nicotine or the selective α7-agonist PNU282987 (PNU) was associated with a significant increase”.
